Source: PubChem BioAssay (NCI)
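Dose response: 5 concentrations. Exposure: 48 h. Format: 96-well plates. Endpoint: linear interpolation; highest concentration if not reached. GI50 is the concentration that inhibits growth by half. TGI: concentration producing complete growth inhibition.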

Key:
Assay in all cases: NCI anticancer screen, dose series, 48 h
786-0 renal = tested on: 786-0 renal
A498 renal = tested on: A498 renal
A549 NSCLC = tested on: A549 NSCLC
ACHN renal = tested on: ACHN renal
BT-549 breast = tested on: BT-549 breast
CAKI-1 renal = tested on: CAKI-1 renal
COLO 205 colon = tested on: COLO 205 colon
DU-145 prostate = tested on: DU-145 prostate
EKVX NSCLC = tested on: EKVX NSCLC
HCC-2998 colon = tested on: HCC-2998 colon
HCT-116 colon = tested on: HCT-116 colon
HCT-15 colon = tested on: HCT-15 colon
HOP-62 NSCLC = tested on: HOP-62 NSCLC
HOP-92 NSCLC = tested on: HOP-92 NSCLC
HS 578T breast = tested on: HS 578T breast
HT29 colon = tested on: HT29 colon
IGROV1 ovarian = tested on: IGROV1 ovarian
K-562 leukemia = tested on: K-562 leukemia
KM12 colon = tested on: KM12 colon
LOX IMVI melanoma = tested on: LOX IMVI melanoma
M14 melanoma = tested on: M14 melanoma
MALME-3M melanoma = tested on: MALME-3M melanoma
MCF7 breast = tested on: MCF7 breast
MDA-MB-231 breast = tested on: MDA-MB-231 breast
MDA-MB-435 = tested on: MDA-MB-435
MOLT-4 leukemia = tested on: MOLT-4 leukemia
NCI-H226 lung = tested on: NCI-H226 lung
NCI-H23 lung = tested on: NCI-H23 lung
NCI-H460 lung = tested on: NCI-H460 lung
NCI-H522 lung = tested on: NCI-H522 lung
NCI/ADR-RES ovarian = tested on: NCI/ADR-RES ovarian
OVCAR-3 ovarian = tested on: OVCAR-3 ovarian
OVCAR-4 ovarian = tested on: OVCAR-4 ovarian
OVCAR-5 ovarian = tested on: OVCAR-5 ovarian
OVCAR-8 ovarian = tested on: OVCAR-8 ovarian
PC-3 prostate = tested on: PC-3 prostate
RPMI-8226 leukemia = tested on: RPMI-8226 leukemia
RXF 393 renal = tested on: RXF 393 renal
SF-268 CNS = tested on: SF-268 CNS
SF-295 CNS = tested on: SF-295 CNS
SF-539 CNS = tested on: SF-539 CNS
SK-MEL-2 melanoma = tested on: SK-MEL-2 melanoma
SK-MEL-28 melanoma = tested on: SK-MEL-28 melanoma
SK-MEL-5 melanoma = tested on: SK-MEL-5 melanoma
SK-OV-3 ovarian = tested on: SK-OV-3 ovarian
SN12C renal = tested on: SN12C renal
SNB-19 CNS = tested on: SNB-19 CNS
SR leukemia = tested on: SR leukemia
SW-620 colon = tested on: SW-620 colon
T-47D breast = tested on: T-47D breast
TK-10 renal = tested on: TK-10 renal
U251 CNS = tested on: U251 CNS
UACC-257 melanoma = tested on: UACC-257 melanoma
UACC-62 melanoma = tested on: UACC-62 melanoma
UO-31 renal = tested on: UO-31 renal

`Nc1nc(SCc2ccccc2)nc2[nH]ncc12` gave a GI50 (786-0 renal) of 18.7 µM, a TGI (786-0 renal) of 36 µM and a GI50 (A498 renal) of 10 µM. For the same compound, the TGI (A498 renal) was 22.2 µM, the GI50 (A549 NSCLC) was 13.6 µM and the TGI (A549 NSCLC) was 29.1 µM. The GI50 (ACHN renal) was 15.5 µM, the TGI (ACHN renal) was 31.6 µM and the GI50 (BT-549 breast) was 17.3 µM. The TGI (BT-549 breast) was 35.1 µM, the GI50 (CAKI-1 renal) was 15.2 µM and the TGI (CAKI-1 renal) was 28.8 µM. The GI50 (COLO 205 colon) was 17.1 µM, the TGI (COLO 205 colon) was 53.6 µM and the GI50 (DU-145 prostate) was 21.2 µM. It also gave a TGI (DU-145 prostate) of 55.4 µM, a GI50 (EKVX NSCLC) of 16.1 µM and a TGI (EKVX NSCLC) of 35.8 µM. The GI50 (HCC-2998 colon) was 19.6 µM, the TGI (HCC-2998 colon) was 34.4 µM and the GI50 (HCT-116 colon) was 13.2 µM. The TGI (HCT-116 colon) was 26.3 µM, the GI50 (HCT-15 colon) was 20.4 µM and the TGI (HCT-15 colon) was > 100 µM. The GI50 (HOP-62 NSCLC) was 18.7 µM, the TGI (HOP-62 NSCLC) was 33.4 µM and the GI50 (HOP-92 NSCLC) was 2.54 µM. It also gave a TGI (HOP-92 NSCLC) of 11.7 µM, a GI50 (HS 578T breast) of 14.3 µM and a TGI (HS 578T breast) of 34.5 µM. It also gave a GI50 (HT29 colon) of 17.1 µM, a TGI (HT29 colon) of 49.3 µM and a GI50 (IGROV1 ovarian) of 19.4 µM. The TGI (IGROV1 ovarian) was 41.8 µM, the GI50 (K-562 leukemia) was 14.3 µM and the TGI (K-562 leukemia) was > 100 µM. It also gave a GI50 (KM12 colon) of 14.1 µM, a TGI (KM12 colon) of 28.4 µM and a GI50 (LOX IMVI melanoma) of 20.8 µM. The TGI (LOX IMVI melanoma) was 58.2 µM, the GI50 (M14 melanoma) was 19.4 µM and the TGI (M14 melanoma) was 34.8 µM. It also gave a GI50 (MALME-3M melanoma) of 11.7 µM, a TGI (MALME-3M melanoma) of 24.3 µM and a GI50 (MCF7 breast) of 11.8 µM. It also gave a TGI (MCF7 breast) of 26.6 µM, a GI50 (MDA-MB-231 breast) of 16.4 µM and a TGI (MDA-MB-231 breast) of 31.7 µM. For the same compound, the GI50 (MDA-MB-435) was 15.8 µM, the TGI (MDA-MB-435) was 29.9 µM and the GI50 (MOLT-4 leukemia) was 25.7 µM. For the same compound, the TGI (MOLT-4 leukemia) was > 100 µM, the GI50 (NCI-H226 lung) was 13.4 µM and the TGI (NCI-H226 lung) was 27.4 µM. It also gave a GI50 (NCI-H23 lung) of 12.6 µM, a TGI (NCI-H23 lung) of 25.8 µM and a GI50 (NCI-H460 lung) of 12.3 µM. For the same compound, the TGI (NCI-H460 lung) was 29.4 µM, the GI50 (NCI-H522 lung) was 17.9 µM and the TGI (NCI-H522 lung) was 46 µM. It also gave a GI50 (NCI/ADR-RES ovarian) of 12.3 µM, a TGI (NCI/ADR-RES ovarian) of 27.8 µM and a GI50 (OVCAR-3 ovarian) of 12.6 µM. It also gave a TGI (OVCAR-3 ovarian) of 25.7 µM, a GI50 (OVCAR-4 ovarian) of 12.2 µM and a TGI (OVCAR-4 ovarian) of 37.1 µM. For the same compound, the GI50 (OVCAR-5 ovarian) was 17.6 µM, the TGI (OVCAR-5 ovarian) was 31.7 µM and the GI50 (OVCAR-8 ovarian) was 25.9 µM. The TGI (OVCAR-8 ovarian) was > 100 µM, the GI50 (PC-3 prostate) was 13.7 µM and the TGI (PC-3 prostate) was 28.7 µM. The GI50 (RPMI-8226 leukemia) was 7.76 µM, the TGI (RPMI-8226 leukemia) was 46 µM and the GI50 (RXF 393 renal) was 3.62 µM. For the same compound, the TGI (RXF 393 renal) was 11.5 µM, the GI50 (SF-268 CNS) was 20.5 µM and the TGI (SF-268 CNS) was 69.2 µM. For the same compound, the GI50 (SF-295 CNS) was 14.8 µM, the TGI (SF-295 CNS) was 29 µM and the GI50 (SF-539 CNS) was 19 µM. For the same compound, the TGI (SF-539 CNS) was 41.7 µM, the GI50 (SK-MEL-2 melanoma) was 20.7 µM and the TGI (SK-MEL-2 melanoma) was 48.9 µM. For the same compound, the GI50 (SK-MEL-28 melanoma) was 17.1 µM, the TGI (SK-MEL-28 melanoma) was 35.9 µM and the GI50 (SK-MEL-5 melanoma) was 12 µM. For the same compound, the TGI (SK-MEL-5 melanoma) was 25.1 µM, the GI50 (SK-OV-3 ovarian) was 20 µM and the TGI (SK-OV-3 ovarian) was 39.1 µM. For the same compound, the GI50 (SN12C renal) was 16.9 µM, the TGI (SN12C renal) was 31.3 µM and the GI50 (SNB-19 CNS) was 19.8 µM. For the same compound, the TGI (SNB-19 CNS) was 42.4 µM, the GI50 (SR leukemia) was 18 µM and the TGI (SR leukemia) was 51.1 µM. The GI50 (SW-620 colon) was 17.9 µM, the TGI (SW-620 colon) was 37.6 µM and the GI50 (T-47D breast) was 4.15 µM. For the same compound, the TGI (T-47D breast) was 15.6 µM, the GI50 (TK-10 renal) was 10 µM and the TGI (TK-10 renal) was 21.9 µM. It also gave a GI50 (U251 CNS) of 14.9 µM, a TGI (U251 CNS) of 33.6 µM and a GI50 (UACC-257 melanoma) of 14.6 µM. The TGI (UACC-257 melanoma) was 28.1 µM, the GI50 (UACC-62 melanoma) was 14.4 µM and the TGI (UACC-62 melanoma) was 27.9 µM. It also gave a GI50 (UO-31 renal) of 18 µM and a TGI (UO-31 renal) of 38.4 µM.
